“And” between values parts separate entries of the source, which are not always exact repeats. Equal values may be shown once.

Series [1] concerns memory B-cells. Put plainly: Liposome binding to peripheral blood memory B-cells by flow cytometry. The series is classed as cell-based, human. How it is done:
200,000 cells/well were plated into a 96-well U-bottom microplate and centrifuged at 300 × g for 5 min. The cells were then resuspended in 50 µL of 50 µM liposome/50 µg/mL (protein concentration) of EV solution in DMEM F12 5% FBS and incubated at 37 °C for 30 min. Excess liposomes were then removed via centrifuged at 300 × g for 5 min followed by washing the cells with FACS solution. The cells were then resuspended in (1:250 V/V) anti-Siglec-flow buffer (1% V/V FBS, 500 µM, EDTA Hank’s Balanced Salt Solution pH 7.4), solution and left to rest on ice for 30 min. The cells were then centrifuged again at 300 × g for 5 min and the cells were resuspended in FACS buffer solution and were then ready for analysis by flow cytometry. Information regarding antibody clone, catalog number supplier, label isotype, and dilution can be found in Supplementary Table 6. The Siglec-positive cells were gated on for liposome-binding analysis (Supplementary Fig. 1b).
Flow cytometry measurements were collected on a 5-laser Fortessa X-20 (BD Bioscience). All the resulting data were analyzed using FlowJo (10.5.3) software (BD Biosciences).
A general note: Flow cytometry measures light scatter and fluorescence of single cells or particles in a stream.

Series [2] deals with syncytiotrophoblasts of placental explants. The series is described as follows: Liposome uptake assay in the placenta explants (confocal microscopy). Conditions: for liposome binding/uptake, fluorescence signal (replicates): cells not given. The format is cell-based, human.
The target in series [3] is T1, Daudi cells transduced with WT Siglec-6 (Homo sapiens, UniProt O43699).
T1 construct: expressed in transfected cells; host or cells: Daudi cells (human B-cell line), lentiviral transduction
Put plainly: pHrodo internalization assay by flow cytometry. The format is cell-based. Conditions: for liposome internalization signal (replicates): sheet Figure S42b. How it is done: Siglec-6 lentivirus was produced as previously reported by Bhattacherjee, A. et al.[72]. Briefly, 1 × 10^6 HEK293T cells were plated in a 6-well dish containing 1.5 mL of DMEM growth medium (Gibco) containing 10% (V/V) fetal bovine serum (FBS; Gibco), 100 U/mL penicillin (Gibco) and 100 µg/mL streptomycin (Gibco). 24 h later, a mixture of 625 ng RP18, 625 ng RP19, 1250 ng hSiglec-6 vector, 7.5 µL TransIT®-LT1 Reagent (Mirus Bio), and Opti-MEM media (Gibco) was added to the HEK293T cells. Cells were incubated with this transfection mixture at 37 °C, 5% CO2 for 72 h. Following transfection, the cell supernatant was harvested and concentrated using Lenti-X concentrator reagent (Takara Bio) following the manufacturer’s instructions.
1.5 × 10^5 Daudi cells were plated in a 24-well plate in 250 µL of RPMI growth medium (Gibco) containing 10% (V/V) fetal bovine serum (FBS; Gibco), 100 U/mL penicillin (Gibco) and 100 µg/mL streptomycin (Gibco). A range of 10X concentrated lentivirus (1, 2, 5, 10 µL) was added to the corresponding wells and incubated for approximately 8 h at 37 °C, 5% CO2 in a tissue culture incubator. After incubation, the media in each well was topped up to 750 µL. Three days post-transduction, 200 µL of cells were plated in a 96-well U-bottom plate and centrifuged at 300 × g for 5 min. The cell pellets were resuspended in 150 µL of flow cytometry buffer (HBSS containing 1% (V/V) FBS, 500 µM EDTA) and the titer of each virus was determined by measuring the mAmentrine+ cells in each well by flow cytometry. The mAmetrine+ cells, ranging from 0.5% to 5%, were re-plated in six-well plates. The mAmetrine+ virally transduced cells were selected for using 300 µg/mL zeocin until the mAmetrine+ population was ≥95%.
Human peripheral blood, taken under an approved institutional ethics protocol, was centrifuged at 1700 × g for 5 min at 4 °C. The upper phase (plasma) was collected and centrifuged at 10,000 × g for 30 min at 4 °C. […]

Series [4] is described as follows: Ganglioside content quantification in liposomes by ESI-MS. The series is classed as physicochemical. Conditions: peer review file; Supplementary Table 1. How it is done: The average ganglioside content in a given liposome sample was measured by electrospray ionization mass spectrometry (ESI-MS) using an internal standard (IS)[70]. Briefly, the liposome sample was first disassembled in a methanol solution of 0.15% formic acid, and a known amount of IS was added. The solution was then analyzed by ESI-MS. The total ion abundance (Ab) ratio of the ganglioside (GSL) to the IS measured by ESI-MS is related to the corresponding solution concentration ratio by Eq. (1):1 R=AbGSL/AbIS=GSL/IS and thus the ganglioside concentration can be obtained from linear regression. The corrected ganglioside percentage (GSL%corr) and the ganglioside incorporation in the liposome can be found from Eqs. (2) and (3), respectively, where [GSL]nominal is the nominal concentration of the ganglioside used for liposome preparation:2 GSL%corr=[GSL]/[TotalLipid] 3 Incorporation=[GSL]/GSLnominal
The corresponding deuterium labeled gangliosides, N-ω-CD3-octadecanoyl monosialoganglioside GM2 (GM2-d3), and N-ω-CD3-octadecanoyl monosialoganglioside GM3 (GM3-d3), purchased form Matreya LLC (State College, PA), were used as IS for GM2 and GM3 content quantification, respectively. All these measurements were carried out in negative ion mode using a Q Exactive Hybrid Quadrupole-Orbitrap mass spectrometer coupled with the Nanospray Flex Ion Source (Thermo Fisher Scientific, Bremen, Germany). […]

T1 sequence (O43699 27-453): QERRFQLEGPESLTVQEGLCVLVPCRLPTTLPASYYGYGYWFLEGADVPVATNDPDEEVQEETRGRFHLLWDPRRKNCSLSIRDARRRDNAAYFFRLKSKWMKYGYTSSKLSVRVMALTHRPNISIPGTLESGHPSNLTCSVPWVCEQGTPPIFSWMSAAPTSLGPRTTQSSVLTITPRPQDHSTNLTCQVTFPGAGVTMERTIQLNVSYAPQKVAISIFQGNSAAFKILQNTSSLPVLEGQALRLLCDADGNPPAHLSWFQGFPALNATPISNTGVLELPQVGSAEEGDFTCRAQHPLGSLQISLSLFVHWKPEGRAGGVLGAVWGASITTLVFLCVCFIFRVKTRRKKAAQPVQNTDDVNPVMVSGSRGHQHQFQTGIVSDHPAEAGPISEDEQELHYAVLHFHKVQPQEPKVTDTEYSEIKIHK

`CCCCCCCCCCCCCCCCOCC(COCCCCCCCCCCCCCCCC)OCc1cn(CCO[C@@H]2O[C@H](CO)[C@@H](O[C@@H]3O[C@H](CO)[C@H](O)[C@H](O[C@]4(C(=O)O)C[C@H](O)[C@@H](NC(C)=O)[C@H]([C@H](O)[C@H](O)CO)O4)[C@H]3O)[C@H](O)[C@H]2O)nn1` [GM3-DAG]: the “liposome binding, fluorescence signal (replicates)” value in series [1] (sheet Figure S29, 5% GM3-DAG liposomes, cells not given) was 361 and 385 and 363 and 344. Also, the “liposome binding/uptake, fluorescence signal (replicates)” value was 5737 and 5556 and 5976 in series [2] (sheet Figure S31, 5% GM3-DAG liposomes + mAb); 20862 and 18720 and 19576 in series [2] (sheet Figure S31, 5% GM3-DAG liposomes, no mAb).

`CCCCCCCCCCCCCCCCOCC(COCCCCCCCCCCCCCCCC)OCc1cn(CCO[C@@H]2O[C@H](CO)[C@@H](O[C@@H]3O[C@H](CO)[C@H](O)[C@H](O[C@]4(C(=O)O)C[C@H](O)[C@@H](NC(C)=O)[C@H]([C@H](O)[C@H](O)CO)O4)[C@H]3O)[C@H](O)[C@H]2O)nn1` [nGL 5]: the “5 nGLL binding to memory B-cells after pre-treatment with anti-Siglec-6 antibody” value in series [1] was “Blocking of 5 nGLLs to human memory B-cells was achieved”. Also, the “5 nGLL binding to memory B-cells compared to naïve B-cells” value in series [1] (four healthy donors) is reported as “significant binding”. Besides, in series [3] (independent of Arg122, only at 37 °C), the “pHrodo signal of 5 nGLLs in Siglec-6 Daudi cells” value is reported as “time-dependent increase in pHrodo signal”. Further, the “puncta of 5 nGLLs on syncytiotrophoblasts compared to naked liposomes” value in series [2] (live human placental explants, 50 μM liposome, 2 h) is on record as “significantly more puncta”. In series [2] (placental explants), the “5 nGLL interaction with syncytiotrophoblasts after pre-treatment with anti-Siglec-6 antibody” value is recorded as “blocked these interactions” and the “colocalization of 5 nGLLs with Siglec-6 compared to naked liposomes” value was “strong colocalization”.

In the case of GM2, the “incorporation of ganglioside into liposomes” value in series [4] was 98%.

As for GM3, the “incorporation of ganglioside into liposomes” value in series [4] was found to be 96%. Further, the “liposome internalization signal (replicates)” value in series [3] (WT-4) is 16.4 and 15.8 and 17.6 and 19.4; in series [3] (WT-37) it was 30.6 and 27.6 and 33.7 and 27.8.

(Values after publication PMC10122656, “Siglec-6 mediates the uptake of extracellular vesicles through a noncanonical glycolipid binding pocket” (Nature Communications, 2023).)
